The record followed here is publication PMC11984586, “A novel spider toxin as a selective antagonist of the Kv1 subfamily of voltage-gated potassium channels through gating modulation” (The Journal of Biological Chemistry, 2025).

Experiment [1] deals with T1, Kv1.3/I472C mutant (Kv1.3∗) (Homo sapiens, UniProt P22001, I472C).
T1 construct: expressed in transfected cells; host or cells: HEK293T
In words: Gating-current recording, Kv1.3* in HEK293T cells. The following applies: mean ± SD; for IC50: held at −100 mV, 50 ms depolarization to +30 mV, HEK293T. The experiment is classed as cell-based. As to the method:
(§1) The cDNA of hKv1.1, hKv1.2, hKv1.3, rKv1.4, hKv1.5, mKv1.6, and hKv1.7 were subcloned into mammalian expression vectors pcDNA3.1 or pCMV-blank vectors, as well as other plasmids described previously ([35]). Channel mutants were generated by site-directed mutations. Briefly, the parental channel plasmid was amplified using a pair of oppositely directed primers harboring the designed mutation site, with KOD Fx (TOYOBO Co, Ltd). The resulting PCR mix was treated with FastDigest DpnI (Thermo Fisher Scientific) to remove the methylated template. Ten microliters of the digested product was then used to transform 100 μl E. coli DH5α competent cells. Transformants were randomly picked and sequenced to confirm the presence of the intended mutation.
CHO-K1 cells were selected for expressing Kv channels due to their lack of endogenous Kv channels, while HEK293 or ND7/23 cells were used for Nav and Cav channel expression. CHO-K1 cells were cultured in a Dulbecco's modified Eagle's medium/Ham's F-12 nutrient mixture (DMEM-F12) medium, and HEK293T and ND7/23 cells in DMEM medium, all supplemented with 10% fetal bovine serum and 1% penicillin-streptomycin (all from Gibco, Thermo Fisher Scientific, Inc) under standard conditions (37 °C, 5% CO2, and saturated humidity). These cell lines were purchased from Stem Cell Bank, Chinese Academy of Sciences. Channel plasmids were cotransfected with pEGFP-N1 (encoding GFP) into the respective cells using lipofectamine 2000, following the manufacturer's instructions (Invitrogen, Thermo Fisher Scientific, Inc.). […] After 4 to 6 h transfection, cells were seeded onto poly-lysine–coated coverslips, and 24 to 36 h later, transfected cells were ready for patch-clamp analysis. […]
Gating currents were recorded by transfecting HEK293T cells with a saturating dose of plasmid to ensure maximal channel expression. […] Gating charge movement (Q) was determined by integrating the area under the IgON and IgOFF traces, representing voltage sensor movement in response to depolarizing pulses. […]

The target of another experiment is T2, hKv1.5 (Homo sapiens, UniProt P22460).
T2 construct: expressed in transfected cells; host or cells: CHO-K1
T2 sequence (P22460 whole entry): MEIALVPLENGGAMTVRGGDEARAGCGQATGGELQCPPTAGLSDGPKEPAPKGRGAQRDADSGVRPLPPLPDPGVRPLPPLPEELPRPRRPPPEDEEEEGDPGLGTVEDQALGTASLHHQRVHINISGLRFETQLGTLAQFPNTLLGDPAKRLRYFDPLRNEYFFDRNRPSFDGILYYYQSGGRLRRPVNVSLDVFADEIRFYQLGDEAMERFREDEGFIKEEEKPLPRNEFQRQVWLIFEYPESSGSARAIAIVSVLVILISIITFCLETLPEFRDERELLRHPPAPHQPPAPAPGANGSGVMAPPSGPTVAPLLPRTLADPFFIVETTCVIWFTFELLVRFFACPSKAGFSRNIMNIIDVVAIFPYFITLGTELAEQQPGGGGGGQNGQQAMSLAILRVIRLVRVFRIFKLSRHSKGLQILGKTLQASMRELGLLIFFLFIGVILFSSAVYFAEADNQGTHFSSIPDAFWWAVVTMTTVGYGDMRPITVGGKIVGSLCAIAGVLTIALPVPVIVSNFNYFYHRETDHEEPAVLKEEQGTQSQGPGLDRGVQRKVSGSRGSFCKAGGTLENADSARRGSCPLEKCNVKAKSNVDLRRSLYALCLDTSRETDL
In words: Whole-cell patch clamp, Kv1.5 ionic current in CHO-K1 cells. The following applies: +30 mV, 500 ms, holding −80 mV, mean ± SD, n = 4–7, read-out: IC50, inhibition of Kv1.5 current (full inhibition). It counts as cell-based. As to the method:
as §1, with “Transformants were randomly picked and sequenced to confirm the presence of the intended mutation.” left out
CHO-K1 cells were selected for expressing Kv channels due to their lack of endogenous Kv channels, while HEK293 or ND7/23 cells were used for Nav and Cav channel expression. […] After 4 to 6 h transfection, cells were seeded onto poly-lysine–coated coverslips, and 24 to 36 h later, transfected cells were ready for patch-clamp analysis. […]
For Kv current recordings, the bath solution contained (in mM) the following: 140 NaCl, 5 KCl, 1 MgCl2, 2 CaCl2, 10 glucose, and 10 Hepes (pH 7.3, adjusted with NaOH), and the pipette solution contained (in mM) the following: 140 KCl, 2.5 MgCl2, 11 EGTA, and 10 Hepes (pH 7.3, adjusted with KOH). […] The steady-state fast inactivation of Kv1.3 was measured using a two-pulses protocol. […]
(The patch-clamp technique gives a direct electrical read-out from membranes.)

Like-named read-outs stand apart in the source and are kept apart here. Bridge positions count the residues as written; N and C are the ends. Peptide text beside a SMILES is read from it.

T1 sequence (P22001 whole entry I472C): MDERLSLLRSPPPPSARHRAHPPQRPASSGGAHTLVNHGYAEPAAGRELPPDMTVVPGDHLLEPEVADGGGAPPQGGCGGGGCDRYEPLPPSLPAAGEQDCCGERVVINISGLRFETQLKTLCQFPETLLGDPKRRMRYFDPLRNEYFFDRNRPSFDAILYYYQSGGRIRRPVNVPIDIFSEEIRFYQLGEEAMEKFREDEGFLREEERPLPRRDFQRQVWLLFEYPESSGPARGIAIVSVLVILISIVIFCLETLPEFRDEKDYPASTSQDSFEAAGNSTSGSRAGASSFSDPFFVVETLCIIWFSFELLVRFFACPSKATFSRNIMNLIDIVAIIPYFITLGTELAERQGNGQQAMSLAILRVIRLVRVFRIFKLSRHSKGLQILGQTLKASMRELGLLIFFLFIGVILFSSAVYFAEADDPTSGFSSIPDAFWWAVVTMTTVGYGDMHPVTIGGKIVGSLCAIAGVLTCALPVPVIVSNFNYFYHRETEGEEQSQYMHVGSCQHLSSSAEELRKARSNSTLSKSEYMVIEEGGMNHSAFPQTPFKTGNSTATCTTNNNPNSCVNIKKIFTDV

What is called IC50 is the concentration needed to halve the response being measured. Take `CC[C@H](C)[C@@H]1NC(=O)[C@H](Cc2ccc(O)cc2)NC(=O)[C@H](CCC(N)=O)NC(=O)[C@@H]2CCCN2C(=O)[C@@H]2CSSC[C@H](NC(=O)[C@H](C)NC(=O)[C@H](CO)NC(=O)[C@H](CCC(=O)O)NC(=O)[C@H](CCC(=O)O)NC(=O)[C@@H](N)[C@@H](C)O)C(=O)NCC(=O)NCC(=O)N[C@@H](Cc3ccccc3)C(=O)N[C@@H](CC(N)=O)C(=O)N[C@@H](C)C(=O)N[C@@H](CCCNC(=N)N)C(=O)N[C@H]3CSSC[C@H](NC1=O)C(=O)N[C@@H](CCCCN)C(=O)NCC(=O)N[C@@H](Cc1c[nH]c4ccccc14)C(=O)N[C@@H](CCCNC(=N)N)C(=O)N[C@@H]([C@@H](C)O)C(=O)N[C@@H](CCCCN)C(=O)N[C@@H](CCCNC(=N)N)C(=O)N[C@H](C(=O)N[C@@H](CC(C)C)C(=O)N[C@@H](CC(N)=O)C(=O)N1CCC[C@H]1C(=O)O)CSSC[C@H](NC(=O)[C@H](CCCCN)NC(=O)[C@H](Cc1c[nH]cn1)NC(=O)[C@H](CC(C)C)NC(=O)[C@@H]1CCCN1C3=O)C(=O)N2` [MrVIII] (H-TEESACGGFNARCPLHKCCPQYICKGWRTKRCLNP-OH; disulfide 6-19, 13-24, 18-32; N-terminus and C-terminus assumed): the “Va of Q-V relationship of Kv1.3∗ after toxin” value in experiment [1] (5 nM MrVIII, before toxin −30.1 ± 7.1 mV, n = 5) is given as −27.4 ± 10.3 mV. Also, the IC50 in experiment [1] (n = 8, read-out: IC50, inhibition of IgOFF gating current of Kv1.3∗) was 7 ± 4.2 nM; in experiment [1] (n = 8, read-out: IC50, inhibition of IgON gating current of Kv1.3∗), 5 ± 3.4 nM; on hKv1.5, 5.7 ± 2.2 nM.
